Measurements from patent EP0726072A2, “Composition for the treatment of hypertension and congestive heart failure, containing an angiotensin II antagonist and an endopeptidase inhibitor” (BRISTOL-MYERS SQUIBB COMPANY, priority 1995, dated 1996).

Tested on: cardiomyopathic hamsters
Assay: Cardiovascular effects in conscious cardiomyopathic hamsters with compensated heart failure
Format: in vivo, hamsters of the BIO TO-2 strain
Details: for left ventricular end diastolic pressure, effect in words / left ventricular systolic pressure, effect in words: summary of the discussion, up to 90 minutes after last treatment
Protocol: The studies described in this experiment were conducted in male hamsters of the BIO TO-2 strain when they were approximately 260 days of age and weighed on average 115 g. These animals develop a genetic form of cardiomyopathy that progresses uniformly among animals through different stages of heart failure. By 240 - 300 days of age the cardiomyopathic hamsters are characterized (as compared with control hamsters) by low mean arterial pressure, a 40% reduction in cardiac output and a decrease in renal blood flow. They display elevated cardiac filling pressure, depressed ventricular function, increased peripheral vascular resistance and have an 8-10-fold increase in plasma atrial natriuretic peptide concentration.
The experiments were conducted in conscious, unrestrained, cardiomyphathic hamsters three hours after placement of cardivascular catheters using brief anesthesia. The catheters allowed measurement of mean arterial pressure, left ventricular end diastolic pressure, left ventricular systolic pressure and heart rate, and provided a means for the administration of agents intravenously.
In this series of experiments baseline measurements of left ventricular end diastolic pressure, left ventricular systolic pressure and heart rate were determined in groups of conscious cardiomyopathic hamsters. Compounds or vehicle were administered intravenously, and measurements were repeated at 30-minute intervals up to 90 minutes after administration of the last agent. BMS 186295 was administered at 30 µmol/kg, i.v. (0.3 ml) followed by a continuous i.v. infusion at 1 µmol/kg per min (0.01 ml/min). BMS 186295 was prepared in 0.028 M potassium hydroxide and diluted to a final concentration of 0.17 M potassium hydroxide. Potassium hydroxide solution (0.17 M) was administered intravenously to the vehicle group at 0.3 ml followed by a continuous infusion at 0.01 ml/min. SQ 28603 was dissolved in 0.84% sodium bicarbonate and administered at 30 µmol/kg, i.v. This dose of SQ 28603 was previously shown to result in a doubling of plasma atrial natriuretic peptide concentration within 90 minutes in this model. One group of cardiomyopathic hamsters received the combination of BMS 186295 and SQ 28603. In this group BMS 186295 was administered according to the same dosage regimen described above; 30 minutes after the bolus injection of BMS 186295, SQ 28603 was administered at 30 µmol/kg, i.v.
Differences in age, body weight and baseline values among groups were evaluated by analysis of variance. Differences in changes from baseline among groups were evaluated by analysis of covariance with repeated measures and contrasts. The baseline value for each variable was used as the covariate. The level of significance was taken at P < 0.05. All data are expressed as mean ± standard error of the mean.

[1] = 30′, BMS 186295 30 µmol/kg i.v. + 1 µmol/kg per min, SQ 28603 30 µmol/kg i.v.
[2] = 60′, BMS 186295 30 µmol/kg i.v. + 1 µmol/kg per min, SQ 28603 30 µmol/kg i.v.
[3] = 90′, BMS 186295 30 µmol/kg i.v. + 1 µmol/kg per min, SQ 28603 30 µmol/kg i.v.
[4] = 30 minutes after last treatment, BMS 186295 30 µmol/kg i.v. + 1 µmol/kg per min, SQ 28603 30 µmol/kg i.v.
[5] = 60 minutes after last treatment, BMS 186295 30 µmol/kg i.v. + 1 µmol/kg per min, SQ 28603 30 µmol/kg i.v.
[6] = 90 minutes after last treatment, BMS 186295 30 µmol/kg i.v. + 1 µmol/kg per min, SQ 28603 30 µmol/kg i.v.
[7] = table line headed 'BMS 186295 SQ 28603', between Baseline and 30′ (time of treatment)

## O=C(O)CCNC(=O)C(CS)Cc1ccccc1 (racemic) [SQ 28603, (±)-N-[2-(mercaptomethyl)-1-oxo-3-phenylpropyl]-β-alanine]
[1]
  Heart Rate: 381 ± 9 beats/min
  Left Ventricular End Diastolic Pressure: 14 ± 2 mm Hg
  Left Ventricular Systolic Pressure: 109 ± 5 mm Hg
[2]
  Heart Rate: 366 ± 9 beats/min
  Left Ventricular End Diastolic Pressure: 17 ± 3 mm Hg
  Left Ventricular Systolic Pressure: 105 ± 4 mm Hg
[3]
  Heart Rate: 378 ± 8 beats/min
  Left Ventricular End Diastolic Pressure: 16 ± 3 mm Hg
  Left Ventricular Systolic Pressure: 105 ± 5 mm Hg
[4]
  Heart Rate, Change From Baseline: 3 ± 8 mm Hg
  Left Ventricular End Diastolic Pressure, Change From Baseline: 4 ± 1 mm Hg
  Left Ventricular Systolic Pressure, Change From Baseline: -8 ± 1 mm Hg
[5]
  Heart Rate, Change From Baseline: -13 ± 12 mm Hg
  Left Ventricular End Diastolic Pressure, Change From Baseline: -1 ± 2 mm Hg
  Left Ventricular Systolic Pressure, Change From Baseline: -12 ± 3 mm Hg
[6]
  Heart Rate, Change From Baseline: -1 ± 9 mm Hg
  Left Ventricular End Diastolic Pressure, Change From Baseline: -2 ± 1 mm Hg
  Left Ventricular Systolic Pressure, Change From Baseline: -12 ± 2 mm Hg
Baseline, before treatment
  Heart Rate: 378 ± 12 beats/min
  Left Ventricular End Diastolic Pressure: 18 ± 3 mm Hg
  Left Ventricular Systolic Pressure: 117 ± 5 mm Hg
  left ventricular end diastolic pressure, effect in words: smaller decreases
  left ventricular systolic pressure, effect in words: smaller decreases
[7]
  Heart Rate: 380 ± 7 beats/min
  Left Ventricular End Diastolic Pressure: 14 ± 3 mm Hg
  Left Ventricular Systolic Pressure: 108 ± 5 mm Hg

## CCCCC1=NC2(CCCC2)C(=O)N1Cc1ccc(-c2ccccc2-c2nnn[nH]2)cc1 [BMS 186295, 2-butyl-6,7,8,9-tetrahydro-3-[[2'-(1H-tetrazol-5-yl)[1,1'-biphenyl]-4-yl]-methyl]-1,3-diazaspiro[4.4]nonan-4-one]
[1]
  Heart Rate: 363 ± 20 beats/min
  Left Ventricular End Diastolic Pressure: 16 ± 2 mm Hg
  Left Ventricular Systolic Pressure: 114 ± 2 mm Hg
[2]
  Heart Rate: 367 ± 18 beats/min
  Left Ventricular End Diastolic Pressure: 16 ± 2 mm Hg
  Left Ventricular Systolic Pressure: 111 ± 2 mm Hg
[3]
  Heart Rate: 369 ± 28 beats/min
  Left Ventricular End Diastolic Pressure: 18 ± 3 mm Hg
  Left Ventricular Systolic Pressure: 112 ± 5 mm Hg
[4]
  Left Ventricular End Diastolic Pressure, Change From Baseline: -1 ± 1 mm Hg
  Left Ventricular Systolic Pressure, Change From Baseline: 2 ± 2 mm Hg
[5]
  Left Ventricular End Diastolic Pressure, Change From Baseline: -1 ± 1 mm Hg
  Left Ventricular Systolic Pressure, Change From Baseline: -1 ± 2 mm Hg
[6]
  Left Ventricular End Diastolic Pressure, Change From Baseline: 1 ± 2 mm Hg
  Left Ventricular Systolic Pressure, Change From Baseline: 1 ± 5 mm Hg
Baseline, before treatment
  Heart Rate: 338 ± 16 beats/min
  Left Ventricular End Diastolic Pressure: 17 ± 2 mm Hg
  Left Ventricular Systolic Pressure: 112 ± 2 mm Hg
  left ventricular end diastolic pressure, effect in words: no significant effects
  left ventricular systolic pressure, effect in words: no significant effects
[7]
  Heart Rate: 364 ± 14 beats/min
  Left Ventricular End Diastolic Pressure: 18 ± 2 mm Hg
  Left Ventricular Systolic Pressure: 111 ± 1 mm Hg
